Measurements published in ChEMBL document CHEMBL1135261, “Antitumor agents. Part 3: synthesis and cytotoxicity of new trans-stilbene benzenesulfonamide derivatives” (2002).

How the values were obtained:
Settings in all cases: Homo sapiens
CAKI-1 = assay: Tested for the cytotoxicity against the Renal cancer cell line CAKI-1, growth inhibition by 50% is reported; format: functional
SF-539 = assay: Tested for the cytotoxicity against the CNS cancer cell line SF-539, growth inhibition by 50% is reported; format: functional
HT-29 = assay: Tested for the cytotoxicity against the colon cancer cell line HT29, growth inhibition by 50% is reported; format: functional
ACHN = assay: Tested for the cytotoxicity against the Renal cancer cell line ACHN, growth inhibition by 50% is reported; format: functional
BT-549 = assay: Tested for the cytotoxicity against the Breast cancer cell line BT-549, growth inhibition by 50% is reported; format: functional
SR = assay: Tested for the cytotoxicity against the Leukemia cell line SR, growth inhibition by 50% is reported; format: functional
K562 = assay: Tested for the cytotoxicity against the Leukemia cell line K-562, growth inhibition by 50% is reported; format: functional
A549 = assay: Tested for the cytotoxicity against the Non-small cell lung cancer cell line A-549, growth inhibition by 50% is reported; format: functional
MDA-MB-435 = assay: Tested for the cytotoxicity against the Breast cancer cell line MDAMB435, growth inhibition by 50% is reported; format: functional
HCT-15 = assay: Tested for the cytotoxicity against the colon cancer cell line HCT15, growth inhibition by 50% is reported; format: functional
IGROV-1 = assay: Tested for the cytotoxicity against the Ovarian cancer cell line IGROV1, growth inhibition by 50% is reported; format: functional
NCI-H23 = assay: Tested for the cytotoxicity against the Non-small cell lung cancer cell line NCI-H23, growth inhibition by 50% is reported
HOP-92 = assay: Tested for the cytotoxicity against the Non-small cell lung cancer cell line HOP-92, growth inhibition by 50% is reported; format: functional
RPMI-8226 = assay: Tested for the cytotoxicity against the Leukemia cell line RPMI8226, growth inhibition by 50% is reported; format: functional
LOX IMVI = assay: Tested for the cytotoxicity against the Melanoma cell line LOXIMVI, growth inhibition by 50% is reported; format: functional
OVCAR-4 = assay: Tested for the cytotoxicity against the Ovarian cancer cell line OVCAR-4, growth inhibition by 50% is reported; format: functional
MOLT-4 = assay: Tested for the cytotoxicity against the Leukemia cell line MOLT-4, growth inhibition by 50% is reported; format: functional
Hs-578T = assay: Tested for the cytotoxicity against the Breast cancer cell line HS-578T, growth inhibition by 50% is reported; format: functional
HL-60 = assay: Tested for the cytotoxicity against the Leukemia cell line HL60, growth inhibition by 50% is reported; format: functional
U-251 = assay: Tested for the cytotoxicity against the CNS cancer cell line U251,growth inhibition by 50% is reported; format: functional
OVCAR-8 = assay: Tested for the cytotoxicity against the Ovarian cancer cell line OVCAR-8, growth inhibition by 50% is reported; format: functional
NCI-H226 = assay: Tested for the cytotoxicity against the Non-small cell lung cancer cell line NCI-H226, growth inhibition by 50% is reported; format: functional
SF-268 = assay: Tested for the cytotoxicity against the CNS cancer cell line SF-268, growth inhibition by 50% is reported; format: functional
KM12 = assay: Tested for the cytotoxicity against the colon cancer cell line KM-12, growth inhibition by 50% is reported; format: functional
CCRF-CEM = assay: Tested for the cytotoxicity against the Leukemia cell line CCRF-CEM, growth inhibition by 50% is reported; format: functional
UACC-62 = assay: Tested for the cytotoxicity against the Melanoma cell line UACC-62, growth inhibition by 50% is reported; format: functional
NCI-H522 = assay: Tested for the cytotoxicity against the Non-small cell lung cancer cell line NCI-H522 growth inhibition by 50% is reported; format: functional

| Compound | GI50 (CAKI-1) [µM] | GI50 (SF-539) [µM] | GI50 (HT-29) [µM] | GI50 (ACHN) [µM] | GI50 (SR) [µM] | GI50 (K562) [µM] | GI50 (A549) [µM] | GI50 (MDA-MB-435) [µM] | GI50 (HCT-15) [µM] | GI50 (IGROV-1) [µM] | GI50 (NCI-H23) [µM] | GI50 (HOP-92) [µM] | GI50 (RPMI-8226) [µM] | GI50 (LOX IMVI) [µM] | GI50 (OVCAR-4) [µM] | GI50 (MOLT-4) [µM] | GI50 (Hs-578T) [µM] | GI50 (HL-60) [µM] | GI50 (U-251) [µM] | GI50 (OVCAR-8) [µM] | also measured |
| --- | --- | --- | --- | --- | --- | --- | --- | --- | --- | --- | --- | --- | --- | --- | --- | --- | --- | --- | --- | --- | --- |
| COc1cc(/C=C/c2ccc(S(N)(=O)=O)cc2)cc(OC)c1 | 19 | 18.8 | 16.2 | 23.5 | 19.7 | 28.7 | 20.7 | 18.7 | 17.4 | 23.1 | 22.5 | 15 | 14.3 | 18.2 | 21.2 | 18.6 | 20.1 | 18.6 | 17.1 | 37.9 | GI50 (BT-549): 10.7 µM; GI50 (NCI-H226): 12.3 µM; GI50 (SF-268): 28.3 µM; GI50 (KM12): 20.8 µM; GI50 (CCRF-CEM): 19.9 µM; GI50 (UACC-62): 15.4 µM |
| COc1cccc(/C=C/c2ccc(S(N)(=O)=O)cc2)c1 | 14.7 | 16.8 | 0.554 | 7.12 | 5.21 | 20.6 | 11 | 17.4 | 3.6 | 2.5 | 21 | 3.29 | 3.81 | 30.7 | 25 | 26.8 | 25.5 | 10.4 | 5.54 | 31.6 | GI50 (BT-549): 6.38 µM; GI50 (NCI-H226): 2.91 µM; GI50 (SF-268): 17.1 µM; GI50 (KM12): 12.2 µM; GI50 (CCRF-CEM): 13.6 µM; GI50 (UACC-62): 14 µM |
| NS(=O)(=O)c1ccc(/C=C/c2ccc(O)c(O)c2)cc1 | 29.1 | 14.2 | 35.4 | 20.4 | 12.7 | 35.3 | 22.3 | 16.8 | 13.9 | 4.49 | 25.9 | 15.8 | 9.16 | 29.9 | 11.6 | 12.8 | 25.6 | 16.3 | 16.3 | 16.7 | GI50 (BT-549): 4.13 µM; GI50 (NCI-H522): 2.25 µM; GI50 (NCI-H226): 14 µM; GI50 (SF-268): 18.2 µM; GI50 (KM12): 18.2 µM; GI50 (CCRF-CEM): 4.79 µM; GI50 (UACC-62): 23.3 µM |
| NS(=O)(=O)c1ccc(/C=C/c2cccc(O)c2)cc1 | 50.2 | 36.7 | 43.3 | 25.8 | 17.8 | 43.4 | 19.8 | 25.8 | 22.8 | 30.2 | 46.1 | 17.4 | 18.9 | 43 | 27.8 | 20 | 61 | 41.4 | 21.1 | 25.2 | GI50 (NCI-H522): 12.2 µM; GI50 (NCI-H226): 25.8 µM; GI50 (SF-268): 65.6 µM; GI50 (KM12): 35.4 µM; GI50 (CCRF-CEM): 16.1 µM; GI50 (UACC-62): 18.6 µM |
| NS(=O)(=O)c1ccc(/C=C/c2ccc(F)cc2)cc1 | 36.3 | 29.1 | 29.4 | 2.97 | 10.5 | 14.9 | 8.93 | 27 | 9.98 | 20.9 | 45.1 | 33.2 | 42.3 | 26.7 | 34.4 | 12.9 | 23.7 | 37.3 | 7.93 | 15.2 | GI50 (BT-549): 0.205 µM; GI50 (NCI-H522): 4.81 µM; GI50 (NCI-H226): 7.97 µM; GI50 (SF-268): 20.5 µM; GI50 (KM12): 16.3 µM; GI50 (CCRF-CEM): 62 µM |
| NS(=O)(=O)c1ccc(/C=C/c2ccc(O)cc2)cc1 | 5.59 | 7.4 | 17.8 | 2.28 | 4.68 | 24.9 | 13.9 | 20.3 | 24.6 | 20.3 | 16.9 | 31.5 | 7.09 | 19.1 | 36.9 | 22.6 | 28.9 | 4.35 | 15 | 4.81 | GI50 (NCI-H522): 13.8 µM; GI50 (NCI-H226): 11.1 µM; GI50 (SF-268): 31.5 µM; GI50 (KM12): 11.1 µM; GI50 (CCRF-CEM): 4.5 µM; GI50 (UACC-62): 3.4 µM |
| CN(C)c1ccc(/C=C/c2ccc(S(N)(=O)=O)cc2)cc1 | 50.3 | 11.7 | 30.8 | 13.6 | 8.58 | > 100 | 10.1 | 7.63 | 17.1 | 13.4 | 14.2 | 16.6 | 11.6 | 18.7 | 3.34 | > 100 | 3.03 | > 100 | 11.2 | 4.95 | GI50 (BT-549): 2.14 µM; GI50 (NCI-H522): 6.88 µM; GI50 (NCI-H226): 12.1 µM; GI50 (SF-268): 7.16 µM; GI50 (KM12): 8.28 µM; GI50 (CCRF-CEM): 46 µM |
